Data as given in patent US20260250318A1, “COMPOSITIONS AND METHODS FOR CROSSING THE BLOOD BRAIN BARRIER” (VOYAGER THERAPEUTICS, INC., priority 2022, published 2026).

Legend:
Conditions in all cases: synthetic library passage 3, intravenous, relative to wild-type AAV9
[1] = tested on: brain, spinal cord, and DRG of the NHPs; experiment: NGS fold enrichment of synthetic library (passage 3) in NHPs, first cross-species screen; type: in vivo, cynomolgus macaques (Macaca fascicularis)
Procedure, shortened: (§1)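 Passage-3 synthetic capsid library given intravenously […] to NHPs (2-4 years) and BALB/c or C57Bl/6 mice (n=3, 6-8 weeks). After e.g. 28 days, tissue RNA was RT-PCR amplified and NGS-sequenced; values are fold enrichment of each variant relative to wild-type AAV9.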

brain [2] = experiment: NGS fold enrichment of synthetic library (passage 3) in BALB/c mice, first cross-species screen; type: in vivo
Procedure, shortened: as §1

brain [3] = experiment: NGS fold enrichment of synthetic library (passage 3) in C57Bl/6 mice, first cross-species screen; type: in vivo
Procedure, shortened: as §1

[4] = RNA from spinal cord of NHPs, NGS
[5] = RNA from brain of BALB/c mice, NGS
[6] = RNA from brain of C57Bl/6 mice, NGS

| Sequence | Fold enrichment over AAV9 in the brain of NHPs ([1]; RNA NGS, brain of NHPs) [fold] | Fold enrichment over AAV9 in the spinal cord of NHPs ([1]; RNA NGS, spinal cord of NHPs) [fold] | Fold enrichment over AAV9 in the brain of Mice (BALB/c) (brain [2]; RNA NGS, brain of BALB/c mice) [fold] | Fold enrichment over AAV9 in the brain of Mice (C57Bl/6) (brain [3]; RNA NGS, brain of C57Bl/6 mice) [fold] | Fold enrichment over AAV9 in the brain of NHPs ([1]; RNA from brain of NHPs, NGS) [fold] | Fold enrichment over AAV9 in the spinal cord of NHPs [1, 4] [fold] | Fold enrichment over AAV9 in the brain of Mice (BALB/c) (brain [2]; [5]) [fold] | Fold enrichment over AAV9 in the brain of Mice (C57Bl/6) (brain [3]; [6]) [fold] |
| --- | --- | --- | --- | --- | --- | --- | --- | --- |
| GSGSSSRPYQNQQT | 1.934 | 3.823 | 0.496 | 0.962 |  |  |  |  |
| GSKGVPTPGQNQQT | 2.625 | 1.292 | 0.459 | 1.452 |  |  |  |  |
| GFIFPKVSGQNQQT |  |  |  |  | 1.237 | 0.000 | 0.692 | 1.764 |
| GVSRGGPSGQNQQT | 1.028 | 1.611 | 0.591 | 0.750 |  |  |  |  |
| GSGQNQQTVMTARA | 1.117 | 1.535 | 0.843 | 0.995 |  |  |  |  |
| GSGNYRDHEQNQQT |  |  |  |  | 1.193 | 7.389 | 0.222 | 0.287 |
| GSGLLHRAQQNQQT | 1.569 | 0.724 | 0.646 | 1.583 |  |  |  |  |
| GSSVRSLVGQNQQT | 1.004 | 3.840 | 0.608 | 0.412 |  |  |  |  |
| GSLLQAHSGQNQQT | 2.182 | 1.008 | 0.748 | 0.575 |  |  |  |  |
| GGLSHVMSGQNQQT | 1.875 | 0.403 | 0.378 | 0.885 |  |  |  |  |
| GSGQNQQALGSQRT | 1.695 | 1.934 | 0.562 | 1.419 |  |  |  |  |
| GSGSKQNALQNQQT |  |  |  |  | 1.216 | 2.010 | 0.594 | 0.941 |
| GSGQNQQTSVSQNV |  |  |  |  | 1.281 | 0.750 | 0.715 | 0.788 |
| GSGHPYKAAQNQQT |  |  |  |  | 1.246 | 0.000 | 0.507 | 0.872 |
| GSGKNQQRPGLDQT | 1.089 | 1.557 | 0.385 | 0.583 |  |  |  |  |
| GSGLALERSQNQQT |  |  |  |  | 1.311 | 0.486 | 0.096 | 0.618 |

| Sequence | Fold enrichment over AAV9 in the brain of NHPs ([1]; RNA NGS, brain of NHPs) [fold] | Fold enrichment over AAV9 in the spinal cord of NHPs ([1]; RNA NGS, spinal cord of NHPs) [fold] | Fold enrichment over AAV9 in the brain of Mice (BALB/c) (brain [2]; RNA NGS, brain of BALB/c mice) [fold] | Fold enrichment over AAV9 in the brain of Mice (C57Bl/6) (brain [3]; RNA NGS, brain of C57Bl/6 mice) [fold] | Fold enrichment over AAV9 in the brain of NHPs ([1]; RNA from brain of NHPs, NGS) [fold] | Fold enrichment over AAV9 in the spinal cord of NHPs [1, 4] [fold] | Fold enrichment over AAV9 in the brain of Mice (BALB/c) (brain [2]; [5]) [fold] | Fold enrichment over AAV9 in the brain of Mice (C57Bl/6) (brain [3]; [6]) [fold] |
| --- | --- | --- | --- | --- | --- | --- | --- | --- |
| GSGQNQQTSHFPSA |  |  |  |  | 1.185 | 0.325 | 0.907 | 0.969 |
| GSSVRYEPKQNQQT | 1.063 | 1.564 | 0.501 | 0.450 |  |  |  |  |
| GSGQDRHIVQNQQT | 1.527 | 11.068 | 0.162 | 0.285 |  |  |  |  |
| GSGSPHVKSQNQQT | 37.551 | 13.649 | 15.861 | 8.069 |  |  |  |  |
| GSGQLPRQMTNQQT |  |  |  |  | 1.376 | 3.550 | 0.562 | 0.400 |
| GSTPAGVGGQNQQT | 1.663 | 2.733 | 0.477 | 0.593 |  |  |  |  |
| GSGQNQQHSLSSQT |  |  |  |  | 1.150 | 3.844 | 0.730 | 0.700 |
| GSLLSAGMGQNQHT | 1.856 | 6.168 | 0.342 | 0.589 |  |  |  |  |
| GSVFGVPSGQNQQT | 1.474 | 1.248 | 0.213 | 0.685 |  |  |  |  |
| GSGVHGVSSQNQQT | 1.781 | 4.519 | 0.951 | 1.504 |  |  |  |  |
| GSRLVHVHGQNQQT | 2.334 | 1.174 | 0.934 | 1.277 |  |  |  |  |
| GSGQSHLHTGNQQT | 1.096 | 2.584 | 0.295 | 0.721 |  |  |  |  |
| GTASTYNSGQNQQT | 1.099 | 2.560 | 0.625 | 0.250 |  |  |  |  |
| GSGQDMKQHHNQQT | 1.501 | 1.638 | 0.239 | 0.358 |  |  |  |  |
| GAFHLAASGQNQQT |  |  |  |  | 1.369 | 18.165 | 0.775 | 0.994 |
| GNSMERTSGQNQQT | 2.221 | 4.177 | 0.935 | 1.047 |  |  |  |  |
